biological target: human recombinant LRRK2 protein (Homo sapiens, UniProt Q5S007); test: LRRK2 kinase activity assay (ADP-Glo, LRRKtide peptide); type: biochemical; details: human recombinant LRRK2 wt, LRRKtide peptide and ATP, 1 h at 37° C.
Protocol: The inhibition of LRRK2 kinase was assessed using human recombinant LRRK2 protein in an in vitro peptide-based kinase assay.
LRRK2 Kinase reactions were carried out in 384-well white polystyrene plates in a final volume of 6 μl using ADP-Glo™ Kinase Assay kit (Promega Corp.). Compound and substrates (LRRKtide peptide and ATP) in assay buffer were first dispensed in wells. Kinase reaction was then started by the addition of human recombinant LRRK2 protein. After 1 h-incubation at 37° C., the enzymatic reactions was stopped by the addition of 6 μl of ADP-Glo Reagent-1 and an additional 40-minutes incubation at 23° C. (residual ATP depletion). A final 30-minutes incubation after 12 μL reagent-2 addition (ADP to ATP conversion and luciferin/luciferase reaction) was performed before luminescent signal acquisition (EnVision™ multimode plate reader—PerkinElmer, Inc.). Data from 10 individual concentrations of tested compounds (N=2) were fitted (XLfit™—ID Business Solutions Ltd) to deliver IC50s (compound concentration leading to 50% inhibition of reference enzymatic activity).
The compounds are dissolved to 5 mM in DMSO. When needed, solutions are sonicated in a bath sonicator.
Table 2 provides the pIC50 values of the compounds according to the invention, obtained using the above mentioned kinase assay. Activities are represented as +++, ++ and +, having the following meanings: • «+++» means an IC50<10 nM • «++» means an IC50<100 nM • «+» means an IC50<1 μM • «−» means an IC50>1 μM

Chain of human recombinant LRRK2 protein (Q5S007 whole entry): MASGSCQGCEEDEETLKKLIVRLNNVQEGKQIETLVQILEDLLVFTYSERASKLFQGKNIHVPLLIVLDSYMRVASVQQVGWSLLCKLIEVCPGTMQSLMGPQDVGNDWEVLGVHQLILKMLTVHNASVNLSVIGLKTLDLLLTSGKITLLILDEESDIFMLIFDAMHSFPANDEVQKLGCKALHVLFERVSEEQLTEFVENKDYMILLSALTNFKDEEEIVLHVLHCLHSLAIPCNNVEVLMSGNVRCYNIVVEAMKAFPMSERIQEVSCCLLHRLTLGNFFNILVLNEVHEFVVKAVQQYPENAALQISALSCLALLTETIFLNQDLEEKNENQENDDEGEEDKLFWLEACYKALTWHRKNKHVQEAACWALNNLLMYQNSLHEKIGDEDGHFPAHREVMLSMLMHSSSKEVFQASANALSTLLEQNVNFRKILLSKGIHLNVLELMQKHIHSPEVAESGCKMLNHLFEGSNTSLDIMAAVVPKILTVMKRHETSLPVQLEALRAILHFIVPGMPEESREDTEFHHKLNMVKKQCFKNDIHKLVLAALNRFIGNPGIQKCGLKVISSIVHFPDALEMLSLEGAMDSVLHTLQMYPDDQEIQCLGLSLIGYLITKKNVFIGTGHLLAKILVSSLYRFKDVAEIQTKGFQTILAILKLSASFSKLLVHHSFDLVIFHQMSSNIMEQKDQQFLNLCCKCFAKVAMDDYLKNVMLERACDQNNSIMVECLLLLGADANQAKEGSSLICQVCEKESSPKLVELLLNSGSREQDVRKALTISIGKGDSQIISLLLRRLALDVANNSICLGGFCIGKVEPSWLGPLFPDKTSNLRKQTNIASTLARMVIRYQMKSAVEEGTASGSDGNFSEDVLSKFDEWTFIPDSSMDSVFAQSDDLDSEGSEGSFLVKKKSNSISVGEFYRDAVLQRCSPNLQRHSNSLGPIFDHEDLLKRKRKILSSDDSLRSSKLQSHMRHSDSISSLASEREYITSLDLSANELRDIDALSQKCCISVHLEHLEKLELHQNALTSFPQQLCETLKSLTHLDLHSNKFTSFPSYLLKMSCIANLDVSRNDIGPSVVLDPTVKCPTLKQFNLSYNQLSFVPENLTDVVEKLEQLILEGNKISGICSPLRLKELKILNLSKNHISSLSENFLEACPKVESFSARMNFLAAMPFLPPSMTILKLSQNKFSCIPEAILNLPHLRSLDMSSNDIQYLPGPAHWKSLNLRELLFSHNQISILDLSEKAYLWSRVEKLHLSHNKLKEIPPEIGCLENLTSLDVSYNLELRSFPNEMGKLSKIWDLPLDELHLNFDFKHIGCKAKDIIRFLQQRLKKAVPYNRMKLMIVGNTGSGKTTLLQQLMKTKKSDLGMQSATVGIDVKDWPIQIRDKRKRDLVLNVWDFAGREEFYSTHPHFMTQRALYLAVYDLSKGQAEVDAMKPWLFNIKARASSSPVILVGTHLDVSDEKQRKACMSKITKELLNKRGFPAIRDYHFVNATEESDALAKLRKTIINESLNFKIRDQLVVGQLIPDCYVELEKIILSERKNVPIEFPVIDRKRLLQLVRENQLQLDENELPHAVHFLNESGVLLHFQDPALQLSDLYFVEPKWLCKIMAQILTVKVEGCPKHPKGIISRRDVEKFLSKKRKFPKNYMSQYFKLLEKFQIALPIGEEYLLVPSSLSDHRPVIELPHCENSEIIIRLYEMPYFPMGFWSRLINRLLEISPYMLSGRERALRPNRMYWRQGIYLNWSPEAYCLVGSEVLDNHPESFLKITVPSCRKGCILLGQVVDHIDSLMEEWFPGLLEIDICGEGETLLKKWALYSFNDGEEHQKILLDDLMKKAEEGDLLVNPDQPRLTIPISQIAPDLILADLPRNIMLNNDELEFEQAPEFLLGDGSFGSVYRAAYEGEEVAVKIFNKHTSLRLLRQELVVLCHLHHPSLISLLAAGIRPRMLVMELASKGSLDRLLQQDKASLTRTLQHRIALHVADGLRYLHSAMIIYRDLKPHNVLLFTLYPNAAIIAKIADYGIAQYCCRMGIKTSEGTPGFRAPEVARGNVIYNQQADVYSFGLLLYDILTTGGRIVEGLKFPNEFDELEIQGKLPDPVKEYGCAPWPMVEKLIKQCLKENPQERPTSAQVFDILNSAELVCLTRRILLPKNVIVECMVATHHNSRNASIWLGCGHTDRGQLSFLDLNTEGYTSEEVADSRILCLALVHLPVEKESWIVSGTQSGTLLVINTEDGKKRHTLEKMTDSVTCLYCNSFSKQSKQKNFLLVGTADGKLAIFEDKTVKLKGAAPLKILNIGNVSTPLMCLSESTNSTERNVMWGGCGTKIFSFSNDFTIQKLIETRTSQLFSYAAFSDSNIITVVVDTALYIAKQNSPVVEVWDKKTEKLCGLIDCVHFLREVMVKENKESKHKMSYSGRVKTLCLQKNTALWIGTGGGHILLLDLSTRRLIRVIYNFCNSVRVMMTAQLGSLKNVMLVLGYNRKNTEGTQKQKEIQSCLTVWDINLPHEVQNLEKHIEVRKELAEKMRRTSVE

IC50 [nM]	SMILES
< 10	C[C@@H]1COCCOCC(F)n2cc(cn2)-c2n[nH]c3ccc(cc23)O1 (single isomer, unassigned) [Example 105, (6R*,13R)-6-fluoro-13-methyl-8,11,14-trioxa-4,5,19,20-tetraazatetracyclo[13.5.2.1^2,5.0^18,21]tricosa-1(20),2(23),3, 15(22),16,18(21)-hexaene]
< 100	C[C@@H]1COCCOCC(F)n2cc(cn2)-c2n[nH]c3ccc(cc23)O1 (single isomer, unassigned) [Example 106, (6S*,13R)-6-fluoro-13-methyl-8,11,14-trioxa-4,5,19, 20-tetraazatetracyclo[13.5.2.1^2,5.0^18,21]tricosa-1(20),2(23),3,15(22),16,18(21)-hexaene]
< 100	COCC1CCOc2ccc3[nH]nc(c3c2)-c2cccc(c2)OCC(=O)N1 (single isomer, unassigned) [Example 150, (11S) or (11R)-11-(methoxymethyl)-7,14-dioxa-10,19,20-triazatetracyclo[13.5.2.1^2,6.0^18,21]tricosa-1(20),2(23),3,5,15,17,21-heptaen-9-one]
< 100	COCC1CCOc2ccc3[nH]nc(c3c2)-c2cccc(c2)OCCN1 (single isomer, unassigned) [Example 151, (11S) or (11R)-11-(methoxymethyl)-7,14-dioxa-10,19,20-triazatetracyclo[13.5.2.1^2,6.0^18,21]tricosa-1(20),2(23),3,5,15,17,21-heptaene]
< 100	COCC1CCOc2ccc3[nH]nc(c3c2)-c2cccc(c2)OCC(=O)N1 (single isomer, unassigned) [Example 152, (11R) or (11S)-11-(methoxymethyl)-7,14-dioxa-10,19,20-triazatetracyclo[13.5.2.1^2,6.0^18,21]tricosa-1(20),2(23),3,5,15,17,21-heptaen-9-one]
< 100	COCC1CCOc2ccc3[nH]nc(c3c2)-c2cccc(c2)OCCN1 (single isomer, unassigned) [Example 153, (11R) or (11S)-11-(methoxymethyl)-7,14-dioxa-10,19,20-triazatetracyclo[13.5.2.1^2,6.0^18,21]tricosa-1(20),2(23),3,5,15,17,21-heptaene]
< 10	CC1CNCCCOc2ccc3[nH]nc(c3c2)-c2cc(cc(N3CCOCC3)c2)O1 (single isomer, unassigned) [Example 177, (8R) or (8S)-8-methyl-4-(morpholin-4-yl)-7,14-dioxa-10,19,20-triazatetracyclo[13.5.2.1^2,6.0^18,21]tricosa-1(20),2,4,6(23),15,17,21-heptaene]
< 10	CC1CNCCCOc2ccc3[nH]nc(c3c2)-c2cc(cc(N3CCOCC3)c2)O1 (single isomer, unassigned) [Example 178, (8R) or (8S)-8-methyl-4-(morpholin-4-yl)-7,14-dioxa-10,19,20-triazatetracyclo[13.5.2.1^2,6.0^18,21]tricosa-1(20),2,4,6(23),15,17,21-heptaene]
< 10	C[C@@H]1CNCC[C@H](C)Oc2ccc3[nH]nc(c3c2)-c2cncc(c2)O1 (single isomer, unassigned) [Example 229, (8R or 8S,13S)-8,13-dimethyl-7,14-dioxa-4,10,19,20-tetraazatetracyclo[13.5.2.1^2,6.0^18,21]tricosa-1(20),2,4,6(23),15(22),16,18(21)-heptaene]
< 100	C[C@H]1CCNC[C@H](C)Oc2cncc(c2)-c2n[nH]c3ccc(cc23)O1 (single isomer, unassigned) [Example 230, (8S or 8R,13S)-8,13-dimethyl-7,14-dioxa-4,10,19,20-tetraazatetracyclo[13.5.2.1^2,6.0^18,21]tricosa-1(20),2,4,6(23),15(22),16,18(21)-heptaene]
< 1000	C[C@@H]1CNCCO[C@@H](C)c2cncc(c2)-c2n[nH]c3ccc(cc23)O1 (single isomer, unassigned) [Example 234, (7S or 7R,13R)-7,13-dimethyl-8,14-dioxa-4,11,19,20-tetraazatetracyclo[13.5.2.1^2,6.0^18,21]tricosa-1(20),2(23),3,5,15(22),16,18(21)-heptaene]
< 100	C[C@@H]1CNCCO[C@H](C)c2cncc(c2)-c2n[nH]c3ccc(cc23)O1 (single isomer, unassigned) [Example 235, (7R or 7S,13R)-7,13-dimethyl-8,14-dioxa-4,11,19,20-tetraazatetracyclo[13.5.2.1^2,6.0^18,21]tricosa-1(20),2(23),3,5,15(22),16,18(21)-heptaene]
< 10	c1cc2[nH]nc3c2cc1NCCOCCOc1cc-3cc(N2CCOCC2)c1 [Example 1, 4-(morpholin-4-yl)-7,10-dioxa-13,18,19-triazatetracyclo[12.5.2.1^2,6.0^17,20] docosa-1(19),2(22),3,5,14(21),15,17(20)-heptaene]
< 10	c1cc2[nH]nc3c2cc1OCCCOCCOc1cncc-3c1 [Example 2, 7,10,14-trioxa-4,19,20-triazatetracyclo[13.5.2.1^2,6.0^18,21]tricosa-1(20),2(23), 3,5,15(22),16,18(21)-heptaene]
< 10	c1cc2[nH]nc3c2cc1OCCOCCCOc1cc-3cc(N2CCOCC2)c1 [Example 3, 4-(morpholin-4-yl)-7,11,14-trioxa-19,20-diazatetracyclo[13.5.2.1^2,6.0^18,21] tricosa-1(20),2(23),3,5,15(22),16,18(21)-heptaene]
< 10	c1cc2[nH]nc3c2cc1NCCCOCCOc1cncc-3c1 [Example 4, 7,10-dioxa-4,14,19,20-tetraazatetracyclo[13.5.2.1^2,6.0^18,21]tricosa-1(20),2(23), 3,5,15(22),16,18(21)-heptaene]
< 10	c1cc2[nH]nc3c2cc1OCCCOCCCn1cc-3cn1 [Example 5, 9,13-dioxa-4,5,18,19-tetraazatetracyclo[12.5.2.1^2,5.0^17,20] docosa-1(19),2(22),3,14(21),15,17(20)-hexaene]
< 10	c1cc2[nH]nc3c2cc1OCCCOCCCCn1cc-3cn1 [Example 6, 10,14-dioxa-4,5,19,20-tetraazatetracyclo[13.5.2.1^2,5.0^18,21]tricosa-1(20),2(23), 3,15(22),16,18(21)-hexaene]
< 10	C[C@@H]1COCCCOc2nccc(n2)-c2n[nH]c3ccc(cc23)O1 [Example 7, (13R)-13-methyl-7,11,14-trioxa-5,19,20,23-tetraazatetracyclo[13.5.2.1^2,6.0^18,21]tricosa-1(20),2(23),3,5,15(22),16,18(21)-heptaene]
< 10	C[C@@H]1CCOCCCOc2ccc3[nH]nc(c3c2)-c2cnn1c2 [Example 8, (6R)-6-methyl-9,13-dioxa-4,5,18,19-tetraazatetracyclo[12.5.2.1^2,5.0^17,20] docosa-1(19),2(22),3,14(21),15,17(20)-hexaene]
< 100	C[C@@H]1OCCOC[C@H](C)Oc2ccc3[nH]nc(c3c2)-c2cncc1c2 [Example 9, (7S,13S)-7,13-dimethyl-8,11,14-trioxa-4,19,20-triazatetracyclo[13.5.2.1^2,6.0^18,21]tricosa-1(20),2(23),3,5,15(22),16,18(21)-heptaene]
< 100	C[C@H]1COCCO[C@H](C)c2cncc(c2)-c2n[nH]c3ccc(cc23)O1 [Example 10, (7R,13S)-7,13-dimethyl-8,11,14-trioxa-4,19,20-triazatetracyclo[13.5.2.1^2,6.0^18,21]tricosa-1(20),2,4,6(23),15(22),16,18(21)-heptaene]

— patent publication US20240246992A1, “MACROCYCLIC LRRK2 KINASE INHIBITORS” (LES LABORATOIRES SERVIER, priority 2021, published 2024)
